In paper PMC10649247, “Rapid Colloidal Gold Immunoassay for Pharmacokinetic Evaluation of Vancomycin in the Cerebrospinal Fluid and Plasma of Beagle Dogs” (Sensors (Basel, Switzerland), 2023):
Structures can show the parent of a compound that is named as a salt.

What was measured:
[1] = system: VAN antibodies (monoclonal antibodies derived from mouse ascites); assay: Colloidal gold competitive immunoassay test strip (calibration curve and cross-reactivity); type: binding; conditions: for CR (%) = [IC50 of VAN/IC50 of the tested compound] × 100%: cross-reactivity of the colloidal gold test strip; for IC50 (ng/mL), cross-reactivity test: compounds at 0, 0.1, 1, 10, 100, 1000 and 10,000 ng/mL
Experimental: Colloidal gold nanoparticles, integral for inducing a visible color change at the test line of the assay strips, were synthesized by boiling 100 mL of a 0.01% HAuCl4 aqueous solution, followed by the addition of 1% sodium citrate aqueous solution [46, 47, 48]. […] Subsequently, VAN antibodies were conjugated to these gold nanoparticles. The VAN antibodies used were monoclonal antibodies derived from mouse ascites with a molecular weight of 150 kD. They were purchased from Shenzhen KeJie Industrial Development Co., Ltd. (Shenzhen, China). The efficacy of this conjugation relied on a trifecta of forces: ionic attractions between the negatively charged gold particles and the positively charged proteins, hydrophobic interactions, and sulfur bonds, particularly from thiol groups that linked two regions of the Fc segment of the antibody to the gold surface.
A sequence of critical steps must be followed for fabricating colloidal gold immunochromatographic test strips. Initially, a substrate, typically comprising paper or a film, was precoated with antibodies specifically tailored for detecting the target molecule. Subsequently, colloidal gold nanoparticles were synthesized by reducing gold salts and coupled with antibodies. This coupling was facilitated by the combination of ionic, hydrophobic, and sulfur bond interactions. The resultant antibody-labeled colloidal gold solution was then applied to the designated test line area on the substrate. Then, a control line was established to validate the operational integrity of the strip. Following these applications, the strip underwent a drying process, was trimmed to manageable dimensions, and was hermetically sealed in protective packaging to mitigate the risk of environmental contamination.
The intensity of the color on the test line indicated the signal value. We quantified this signal using a smartphone camera in combination with the ImageJ software (Fiji ImageJ for Mac, 2.3.0 version). […] We used ImageJ to extract the gray values from lines drawn perpendicular to both the control and test lines. […] Therefore, the effective signal, represented as B, is determined by the absolute difference in gray value between the test line and its adjacent area.
The test line is coated with a competitive VAN–BSA antigen, and the control line is coated with […]. Upon application of the sample to the sample pad, the sample flows through the colloidal gold pad to interact with the gold-labeled antibodies. It then progresses through the test and control lines before being absorbed into the absorbent paper. The appearance of a visible line in the test area signifies a negative result for VAN (Figure 1(b1)). […] Regardless of the presence or absence of VAN, a red control line should always appear when the test is operating correctly. Otherwise, the results are invalid. Figure 1c depicts the four scenarios that may arise during testing.
Under optimized assay conditions, we used in-house-prepared VAN standard samples to validate the performance metrics of the test strips. The concentrations of the standard samples were 0, 1, 2, 4, 8, 16, 32, 64, 128, 256, 512, and 1024 ng/mL. For the analysis, we applied 4–5 drops of each sample onto the test strips and allowed them to air-dry for 10 min. We observed an inverse correlation between the VAN concentration and the test line signal intensity. We then proceeded to construct a calibration curve to elucidate the correlation between the optical signals (designated as B/B0) and the respective VAN concentrations. In this context, B represents the optical signals for each standard concentration of VAN, while B0 signifies the optical signal at a zero-concentration baseline. […]

[2] = Pharmacokinetic study of VAN in plasma of beagle dogs (LC-MS); type: in vivo; conditions: single intravenous dose 12 mg/kg, average of three dogs
Experimental: (§1) Animal Dosing and Sample Collection: The choice of using beagle dogs for the pharmacokinetic studies of VAN in CSF and plasma is driven by their physiological similarities to humans, which make them a suitable model for predicting human pharmacokinetics. Three male beagle dogs, each weighing approximately 11 kg and aged 10 months, were utilized for pharmacokinetic studies. Both the acquisition of the beagle dogs and the sample collection were conducted by Beijing Sinogenetic Biotechnology Co., Ltd. (Beijing, China). The animal protocols employed for this research were reviewed and approved by Beijing Sinogenetic Biotechnology Co., Ltd. (XNY-20230524001). The beagle dogs were anesthetized and subsequently administered a single intravenous dose of a pre-prepared 50 mg/mL VAN hydrochloride solution at a dosage level of 12 mg/kg, with the injection time lasting approximately 2–3 s. CSF and plasma samples were collected at predetermined time points: predose (0 min) and postdose at intervals of 5 min, 10 min, 30 min, 1 h, 2 h, 4 h, 8 h, and 24 h. […]
(§2) An HPLC–MS method was established to precisely quantify VAN levels in CSF and plasma samples collected from beagle dogs. […] The methodological rigor ensured a high degree of specificity and sensitivity in VAN quantification, effectively fulfilling the objectives of this study.

[3] = Pharmacokinetic study of VAN in CSF of beagle dogs (LC-MS); type: in vivo; conditions: single intravenous dose 12 mg/kg, average of three dogs
Experimental: as §1, §2

Molecule	CR (%) = [IC50 of VAN/IC50 of the tested compound] × 100% [1] [%]	IC50 (ng/mL), cross-reactivity test ([1]; test strip)	peak concentration of VAN in plasma [2] [µg/mL]	concentration of VAN in plasma within ~4 h ([2]; ~4 h post dose)	time at which VAN concentration in CSF reaches its maximum [3]	LOD, concentration of VAN giving a 10% inhibition of the maximum absorbance ([1]; test strip calibration curve, read after 10 min, n = 3) [ng/mL]	inhibitory concentration 50% (IC50) from the calibration curve (B/B0 against VAN concentration) ([1]; test strip, standard samples 0-1024 ng/mL, read after 10 min, smartphone/ImageJ gray value, n = 3) [ng/mL]
NCC[C@H](O)C(=O)N[C@@H]1C[C@H](N)[C@@H](O[C@H]2O[C@H](CN)[C@@H](O)[C@H](O)[C@H]2O)[C@H](O)[C@H]1O[C@H]1O[C@H](CO)[C@@H](O)[C@H](N)[C@H]1O [Amikacin, amikacin]	<0.5	>10^4 ng/mL					
CN[C@H](CC(C)C)C(=O)N[C@H]1C(=O)N[C@@H](CC(N)=O)C(=O)N[C@H]2C(=O)N[C@H]3C(=O)N[C@H](C(=O)N[C@H](C(=O)O)c4cc(O)cc(O)c4-c4cc3ccc4O)[C@H](O[C@H]3C[C@](C)(N)[C@@H](O)[C@H](C)O3)c3ccc(c(Cl)c3)Oc3cc2cc(c3O[C@@H]2O[C@H](CO)[C@@H](O)[C@H](O)[C@H]2O[C@H]2C[C@](C)(NCc3ccc(-c4ccc(Cl)cc4)cc3)[C@@H](O)[C@H](C)O2)Oc2ccc(cc2Cl)[C@H]1O [Oritavancin, oritavancin]	<0.5	>10^4 ng/mL					
CN[C@H](CC(C)C)C(=O)N[C@H]1C(=O)N[C@@H](CC(N)=O)C(=O)N[C@H]2C(=O)N[C@H]3C(=O)N[C@H](C(=O)N[C@H](C(=O)O)c4cc(O)cc(O)c4-c4cc3ccc4O)[C@H](O)c3ccc(c(Cl)c3)Oc3cc2cc(c3O[C@@H]2O[C@H](CO)[C@@H](O)[C@H](O)[C@H]2O[C@H]2C[C@](C)(N)[C@H](O)[C@H](C)O2)Oc2ccc(cc2Cl)[C@H]1O [VAN, Vancomycin hydrochloride]	100		40	below 1 µg/mL	~ 2 h	10.3	44.5
CCCCCCCCCCNCCN[C@@]1(C)C[C@H](O[C@H]2[C@H](Oc3c4cc5cc3Oc3ccc(cc3Cl)[C@@H](O)[C@@H](NC(=O)[C@@H](CC(C)C)NC)C(=O)N[C@@H](CC(N)=O)C(=O)N[C@H]5C(=O)N[C@H]3C(=O)N[C@H](C(=O)N[C@H](C(=O)O)c5cc(O)c(CNCP(=O)(O)O)c(O)c5-c5cc3ccc5O)[C@H](O)c3ccc(c(Cl)c3)O4)O[C@H](CO)[C@@H](O)[C@@H]2O)O[C@@H](C)[C@H]1O [Telavancin, telavancin]	<0.5	>10^4 ng/mL					

More lines, main results first:

CR (%) = [IC50 of VAN/IC50 of the tested compound] × 100% [1] [%]	IC50 (ng/mL), cross-reactivity test ([1]; test strip)	Molecule	peak concentration of VAN in plasma [2] [µg/mL]	concentration of VAN in plasma within ~4 h ([2]; ~4 h post dose)	time at which VAN concentration in CSF reaches its maximum [3]	LOD, concentration of VAN giving a 10% inhibition of the maximum absorbance ([1]; test strip calibration curve, read after 10 min, n = 3) [ng/mL]	inhibitory concentration 50% (IC50) from the calibration curve (B/B0 against VAN concentration) ([1]; test strip, standard samples 0-1024 ng/mL, read after 10 min, smartphone/ImageJ gray value, n = 3) [ng/mL]
<0.5	>10^4 ng/mL	C[C@@H](O)[C@H]1C(=O)N2C(C(=O)O)=C(S[C@@H]3CN[C@H](C(=O)N(C)C)C3)[C@H](C)[C@H]12 [Meropenem, meropenem]					
<0.5	>10^4 ng/mL	CN[C@H]1C(=O)N[C@@H]2Cc3ccc(cc3)Oc3cc4cc(c3O[C@@H]3O[C@H](C(=O)O)[C@@H](O)[C@H](O)[C@H]3NC(=O)CCCCCCCCC(C)C)Oc3ccc(cc3Cl)[C@@H](O)[C@@H]3NC(=O)[C@H](NC(=O)[C@@H]4NC(=O)[C@@H](NC2=O)c2cc(cc(O)c2Cl)Oc2cc1ccc2O)c1ccc(O)c(c1)-c1c(O[C@H]2O[C@H](CO)[C@@H](O)[C@H](O)[C@@H]2O)cc(O)cc1[C@@H](C(=O)NCCCN(C)C)NC3=O [Dalbavancin, dalbavancin]					
<0.5	>10^4 ng/mL	teicoplanin					
